# Measured values: patent US11366100B2, “P13K-MTORC1-S6K1 signaling pathway biomarkers predictive of anti-cancer responses” (Dana-Farber Cancer Institute, Inc., priority 2014, dated 2022)
# Residues, ends and D or L forms follow the SMILES beside them. *: point of attachment. Cbz = O=C(OCc1ccccc1)*
# Legend:
# c-Myc protein [1] = experiment: Western blotting of c-Myc protein and PI3K signaling in LckCre+/Pten f/f primary tumor cells; format: cell-based, mouse
# Description: (§1) Cells were washed with cold PBS and then lysed in 1% Nonidet P-40 lysis buffer supplemented with protease and phosphatase inhibitors. 15 μg of whole cell lysates were resolved by SDS-PAGE followed by transfer onto nitrocellulose membrane (Bio-Rad). Membranes were blocked and incubated with primary antibodies overnight. Immunofluorescently labeled anti-mouse IgG (Rockland Immunochemicals) and anti-rabbit IgG (Molecular Probes) were used to develop band intensities in the Odyssey system (Li-Cor). Quantification of band intensities was performed using Odyssey 3.0 software. The primary antibodies used for Western blotting in the studies described herein were purchased from Cell Signaling Technology, unless otherwise noted: c-Myc, Pten, p-AKT (S473), p-S6RP (S235/236), eIF4A, eIF4B, Actin (Milipore), and α-Tubulin (Sigma-Aldrich).
# c-Myc protein [2] = experiment: De novo synthesis assay of c-Myc protein in primary tumor cells; format: cell-based, mouse; settings: CHX pre-treatment, wash, MG132
# Description: Cells were pre-treated with 25 μg/ml cycloheximide (CHX) for two hours to deplete c-MYC protein and then washed three times with phosphate-buffered saline (PBS) to allow new biosynthesis. MG132 was then added at 10 μM either alone or with 25 μg/ml CHX, or with inhibitors for one hour to two hours.
# c-MYC mRNA [3] = experiment: Quantitative PCR of c-MYC mRNA in HPB-ALL and PF382 cells; format: cell-based, human
# Description: (§2) Total RNA was extracted from cells using TRIzol® reagent (Life Technologies). cDNAs were reverse-transcribed using the SuperScript III first strand synthesis kit (Invitrogen) and subsequently utilized for quantitative PCR with SYBR Green Master Mix (Applied Biosystems). Analysis was performed on triplicate PCR data for each biological duplicate and normalized to GAPDH. Primer sequences are as follows: MYC forward, 5′-[…]-3′ and reverse 5′-[…]-3′; Myc forward, 5′-[…]-3′ and reverse 5′-[…]-3′.
# c-MYC protein [4] = experiment: Western blotting of c-MYC protein and PI3K signaling in human PTEN-deficient T-ALL cell lines; format: cell-based; settings: for c-MYC protein levels: human PTEN-deficient T-ALL cell lines; for PI3K signaling: human PTEN-deficient T-ALL cells, one hour treatment
# Description: as §1
# c-MYC protein [5] = experiment: c-MYC protein stability (cycloheximide chase) in HPB-ALL and PF382 cells; format: cell-based, human; settings: with CHX
# Description: as §1
# c-Myc protein [6] = experiment: c-Myc protein stability (cycloheximide chase) in primary T-ALL cells; format: cell-based, mouse; settings: with CHX
# Description: as §1
# c-Myc mRNA [7] = experiment: Quantitative PCR of c-Myc mRNA in primary T-ALL cells; format: cell-based, mouse
# Description: as §2
# [8] = tested on: PTEN-deficient, c-MYC-high T-ALL cell lines; experiment: Cell proliferation (MTS) assay, PTEN-deficient T-ALL cell lines; format: cell-based, human
# Description: (§3) Hematological cancer cell lines were seeded onto 96-well plates at a density of 15,000 cells/well in 100 μl media. CAMA1 and T47D were seeded at 4,000 cells/well in 100 μl media and then drugs dissolved in DMSO or DMSO control was added. After seventy-two hours of incubation, cells were analyzed for cell viability by the addition of 20 μl/well MTS reagent (Promega). After three hours incubation at 37° C., the signal from the viable cells was determined by measuring the absorbance at 490 nm on a microplate spectrophotometer (Bio-Rad). IC50s were calculated using Prism6 (GraphPad).
# c-MYC mRNA [9] = experiment: Polysome profiling of c-MYC mRNA in HPB-ALL cells; format: cell-based, human
# Description: Polysome profiles and RNA extractions were performed as described in Lee et al. (2013). Briefly, following drug treatment, cells were incubated with 100 μg/ml cyclohexamide at 37° C. for 15 minutes and then washed twice in cold PBS with 100 μg/ml cyclohexamide. Cells were lysed in 10 mM Tris pH 7.4, 10 mM NaCl, 5 mM MgCl2, 100 μg/mL cyclohexamide, 0.5% (v/v) Triton-X, 1.0% (v/v) Tween-20, and 0.5% (v/v) sodium deoxycholate and passed 5× through a 21 gauge needle. Cytoplasmic extracts were clarified by centrifugation at 10,000×g for 10 minutes at 4° C. and loaded onto 10-50% (w/v) sucrose gradients (10 mM Tris pH 7.4, 0.3M NaCl, 15 mM MgCl2, 100 μg/ml cyclohexamide). Lysates were centrifuged at 160,030×g for 2.5 hours at 4° C. in a Beckman Coulter SW41Ti rotor. Fractions were collected using a BioRad BioLogic LP, and absorbance was monitored at UV 254. RNA was isolated from fractions by acid phenol/chloroform extraction and ethanol precipitation, and treated with RQ1 DNAse (Promega) prior to a second extraction and precipitation. RNA was re-suspended in H2O and reverse transcribed using SuperScript® III reverse transcriptase (Life Technologies) for quantitative PCR analysis.
# [10] = tested on: LckCre^+/Pten^f/f primary tumor cells; experiment: Growth inhibition of LckCre+/Pten f/f primary tumor cells; format: cell-based, mouse; settings: LckCre+/Pten f/f primary T-ALL cells
# Description: Hematological cancer cell lines were cultured in RPMI (Life Technologies) supplemented with 10% FBS (Life Technologies) and 1% Pen/Strep (Life Technologies). CAMA1 and T47D were cultured in DMEM (Life Technologies) supplemented with 10% FBS and 1% Pen/Strep. Primary cell lines were established from isolated thymocytes of moribund LckCre^+/Pten^f/f mice and cultured in RPMI supplemented with 10% FBS and 1% Pen/Strep.
# as §3
# [11] = LckCre+/Pten f/f primary tumor cells, Western blotting
structure (smiles),measurement,setting,value
"C[C@@H]1C[C@@H]([C@H](O)CC2CC(=O)NC(=O)C2)C(=O)[C@@H](C)C1 [CHX, cycloheximide]",abundance of c-Myc protein,c-Myc protein [1]; [11],quickly decreased
CC(C)C[C@@H](C=O)NC(=O)[C@H](CC(C)C)NC(=O)[C@H](CC(C)C)NC(=O)OCc1ccccc1 [MG132] (Cbz-Leu-Leu-Leu-aldehyde),de novo synthesis of c-Myc protein,c-Myc protein [2],stabilized and accumulated
NC1(c2ccc(-c3nc4ccn5c(=O)[nH]nc5c4cc3-c3ccccc3)cc2)CCC1 [MK2206],gene expression of MYC (mRNA),c-MYC mRNA [3],little effect
same,c-MYC protein levels,c-MYC protein [4],decreased
same,PI3K signaling,c-MYC protein [4],reduced
same,c-MYC protein stability (degradation),c-MYC protein [5],little effect
same,c-Myc protein stability (degradation),c-Myc protein [6],failed to either expedite or postpone the degradation
same,level of Myc mRNA (transcription),c-Myc mRNA [7],not altered
same,IC50 cell proliferation,"[8]; MTS assay, seventy-two hours",nanomolar range
same,proliferation of PTEN null cells,[8]; panel of human PTEN-deficient T-ALL cell lines,inhibit
same,abundance of c-Myc protein,c-Myc protein [1]; [11],dramatically decreased
same,p-Akt,"c-Myc protein [1]; Western blotting, one hour treatment",reduced
same,de novo synthesis of c-Myc protein,c-Myc protein [2],profoundly blocked
CO[C@H]1C[C@@H]2CC[C@@H](C)[C@@](O)(O2)C(=O)C(=O)N2CCCC[C@H]2C(=O)O[C@H]([C@H](C)C[C@@H]2CC[C@@H](OCCO)[C@H](OC)C2)CC(=O)[C@H](C)/C=C(\C)[C@@H](O)[C@@H](OC)C(=O)[C@H](C)C[C@H](C)/C=C/C=C/C=C/1C [RAD001],gene expression of MYC (mRNA),c-MYC mRNA [3],little effect
same,c-MYC protein levels,c-MYC protein [4],decreased
same,PI3K signaling,c-MYC protein [4],reduced
same,c-MYC protein stability (degradation),c-MYC protein [5],little effect
same,c-Myc protein stability (degradation),c-Myc protein [6],neither BEZ235 nor RAD001 affected
same,"c-MYC translation, mRNA distribution in polysome fractions",c-MYC mRNA [9],moved to the lower fractions of polysomes
same,level of Myc mRNA (transcription),c-Myc mRNA [7],neither BEZ235 nor RAD001 affected
same,downstream signaling of their targets,c-Myc protein [1]; LckCre+/Pten f/f primary tumor cells,dramatically suppressed
same,abundance of c-Myc protein,c-Myc protein [1]; [11],dramatically suppressed
same,growth of primary tumor cells,[10],markedly reduced
same,de novo synthesis of c-Myc protein,c-Myc protein [2],markedly prevented
